Molecular target: Neuraminidase (Influenza A virus, UniProt B4URF0)
Set-up: species or system unidentified adenovirus

Chain of Neuraminidase (B4URF0 whole entry): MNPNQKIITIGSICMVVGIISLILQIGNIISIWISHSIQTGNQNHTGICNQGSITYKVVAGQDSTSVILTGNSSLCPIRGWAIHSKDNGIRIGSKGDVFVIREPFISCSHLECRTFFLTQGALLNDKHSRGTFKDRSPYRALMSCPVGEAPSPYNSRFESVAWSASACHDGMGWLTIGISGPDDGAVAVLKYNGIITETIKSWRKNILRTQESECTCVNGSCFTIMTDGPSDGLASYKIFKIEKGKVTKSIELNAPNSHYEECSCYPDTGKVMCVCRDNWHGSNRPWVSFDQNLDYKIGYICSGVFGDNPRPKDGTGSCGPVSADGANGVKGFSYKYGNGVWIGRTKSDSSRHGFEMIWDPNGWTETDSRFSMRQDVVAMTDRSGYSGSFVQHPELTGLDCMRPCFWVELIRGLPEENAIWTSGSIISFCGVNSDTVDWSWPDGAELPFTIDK

SMILES: CCC(CC)[C@H](NC(C)=O)[C@@H]1[C@H](O)[C@@H](C(=O)O)C[C@H]1NC(=N)N [PERAMIVIR ANHYDROUS]
- IC50: 0.1 nM
